Test results as given in patent US5688767A, “Treatment of endotoxin-associated disorders with cationic peptides” (priority 1996, dated 1997).
≈ marks a conversion by molar mass, not a printed value.

What was measured:
P. aeruginosa = test: microbe, parasite or virus in culture; format: cell-based, Pseudomonas aeruginosa
Protocol: (§1) The minimum inhibitory concentrations of (MIC) of CEME, CEMA and melittin were determined for a number of different bacteria (Table 2). Briefly, cells were grown overnight at 37° C. in LB-S (Luria broth without any salt supplement) and diluted one in 10,000 in the same medium to give concentrations of about 10^4 to 10^5 CFU/ml. The broth dilutions were set up in a 96 well microtiter plate by putting 200 μl of LB-S containing the initial concentration of antibiotic or compound in column 1 and 100 μl of the same medium in columns 2-12. The compounds were diluted by taking 100 μl of broth from column 1 and mixing it with column 2, resulting in a one in two dilution. This was continued to column 10. Finally, 10 μl of bacteria were pipetted into columns 1-11, and the plates incubated overnight at 37° C. The next day the plates were scored for growth in the wells, and the MIC determined.
Bacteria included the Bort strain of E. coli (Bortolussi, et al., Inf. Immun., 25:293, 1979) that was originally derived from a case of neonatal meningitis, and which is therefore considered a relevant pathogenic strain to study, and the 0111:B4 strain of E. coli (kindly provided by Dr. D. Morrison) which is a standard source of endotoxin. (Kelly, et al., Inf. Immun., 59:4491, 1991). In addition, P. aeruginosa PA01 strain H103, P. aeruginosa M2, P. aeruginosa K799, Eschericha coli UB 1005, Enterobacter cloacae 218S, Salmonella typhimurium MS7953s, Klebsiella pneumoniae ATCC 13883, Xanthomonas maltophilia ATCC 13637, and Acinetobacter calcoacetious 8193 were employed. LPS was obtained from E. coli Bort by the technique of Westphal and Jann, (Westphal, et al., Acad. Press, Inc. NY., 5:83) and from P. aeruginosa H103 by the method of Darveau and Hancock, (Darveau, et al., J. Bacteriol, 155:831, […]). E. coli 0111:B4 LPS was purchased from Sigma.

S. aureus = test: microbe, parasite or virus in culture; format: cell-based, Staphylococcus aureus
Protocol: as §1

P. AERUGINOSA H309 = test: microbe, parasite or virus in culture; format: cell-based, Pseudomonas aeruginosa
Protocol: as §1, with “Briefly,” for “The minimum inhibitory concentrations of (MIC) of CEME, CEMA and melittin were determined for a number of different bacteria (Table 2). Briefly,”

[1] = system: P. aeruginosa H309 or E. cloacae 218R1; format: cell-based, Pseudomonas aeruginosa; Enterobacter cloacae; details: 10 μM NPN
Text: The second assay determined membrane permeability by the ability of 1-N-phenylnaphthylamine(NPN), a small fluorescent probe, to insert itself into the membrane. Normally, very little NPN can penetrate the outer membrane, but in the presence of a membrane permeabilizer it can insert into the hydrophobic membrane resulting in an increase in fluorescence (FIGS. 7 and 8). This N-phenylnaphthylamine uptake assay was previously described by Loh, et al., Antimicrobial Agents and Chemo., 26:546, 1984. Cells were prepared exactly the same as for the lysozyme lysis assay. 1-N-phenylnaphthylamine(NPN) was dissolved in acetone at a concentration of 500 μM. NPN fluorescence was measured in a Perkin-Elmer 650-10S fluorescent spectrophotometer using excitation and emission wavelengths set to 350 nm and 420 nm respectively, with slit widths of 5 nm. The assay was standardized by adding 20 μl of NPN (final concentration of 10 μM) and 10 μl of 0.64 mg/ml of polymyxin B (final concentration of 6.4 μg/ml) into 1 ml of cells, and adjusting the resulting fluorescence to read 90% deflection (90 arbitrary units). Various compounds were tested by adding 10 μl of different concentrations to a cuvette containing 1 ml of cells and 10 μM NPN. Permeabilizing activity was designated as the total fluorescence minus the fluorescence due to NPN alone. Following the fluorescence measurement, the OD600 of the cells was taken to ensure no significant cell lysis had occurred.

[2] = system: P. aeruginosa H309 Whole Cells; test: DPx binding inhibition using whole cells; design: species or system Pseudomonas aeruginosa; details: DPx at 90-100% binding saturation, average of at least three trials
Protocol: For DPx binding inhibition assays using whole cells instead of purified LPS, H309 cells were prepared the same way as for the lysozyme lysis assay. The assay consisted of 10 μl of cells at an OD600 of 0.5, 990 μl of 5 mM HEPES pH 7.2 and 5 mM KCN, and the concentration of DPx that gave 90-100% binding saturation. […] Compounds were titrated in, and I50 values were determined as described above.

[3] = strain H188, Antibiotic sensitive
[4] = strain RN4220, Methicillin sensitive
[5] = strain SAP0017, Methicillin resistant

Compound	MIC (P. aeruginosa; strain H187, Parent of H188) [µg/mL]	MIC (P. aeruginosa; [3]) [µg/mL]	MIC (P. aeruginosa; strain H309, Wildtype) [µg/mL]	MIC (S. aureus; [4]) [µg/mL]	MIC (S. aureus; [5]) [µg/mL]	MIC (P. AERUGINOSA H309; +5 mM Mg^++) [µg/mL]	MIC (P. AERUGINOSA H309; +80 mM Na^+) [µg/mL]	MIC (P. AERUGINOSA H309; No addition) [µg/mL]	activity in opening up the membrane to NPN [1]	I50, Value in μg/ml [2] [µg/mL]	MIC (P. aeruginosa; Pseudomonas aeruginosa H103) [µg/mL]	MIC (P. aeruginosa; Pseudomonas aeruginosa K799) [µg/mL]	IC50 ([2]; read-out: I50, Value in μM) [µM]
polymyxin B	0.5	0.06	0.5	> 8	> 8	1	0.5	0.5	equally active	3.7 ± 1.20			
CC[C@H](C)[C@H](NC(=O)CNC(=O)[C@@H](NC(=O)[C@H](CCCCN)NC(=O)[C@H](CCCCN)NC(=O)[C@H](Cc1ccccc1)NC(=O)[C@H](CC(C)C)NC(=O)[C@H](CCCCN)NC(=O)[C@H](Cc1c[nH]c2ccccc12)NC(=O)[C@@H](N)CCCCN)[C@@H](C)CC)C(=O)NCC(=O)N[C@@H](C)C(=O)N[C@H](C(=O)N[C@@H](CC(C)C)C(=O)N[C@@H](CCCCN)C(=O)N[C@H](C(=O)N[C@@H](CC(C)C)C(=O)N[C@H](C(=O)N[C@H](C(=O)NCC(=O)N[C@@H](CC(C)C)C(=O)N1CCC[C@H]1C(=O)N[C@@H](C)C(=O)N[C@@H](CC(C)C)C(=O)N[C@@H](CCCCN)C(=O)N[C@@H](CC(C)C)C(=O)N[C@H](C(=O)N[C@@H](CCCCN)C(=O)O)[C@@H](C)O)[C@@H](C)O)[C@@H](C)O)C(C)C)C(C)C [CEMA]	2.8 (≈ 0.913 µM)	1.4 (≈ 0.457 µM)	2.8 (≈ 0.913 µM)	> 5.6	> 5.6	22.4 (≈ 7.31 µM)	5.6 (≈ 1.83 µM)	2.8 (≈ 0.913 µM)	equally active	1.15 ± 0.09	8 (≈ 2.61 µM)	2.8 (≈ 0.913 µM)	0.37 ± 0.03
